Measurements reported in publication PMC6268361, “Development and Validation of a Bioanalytical Method for Quantification of 2,6-Bis-(4-hydroxy-3-methoxybenzylidene)-cyclohexanone (BHMC) in Rat Plasma” (Molecules, 2012).

Legend:
[1] = tested on: lethal sepsis in mice; set-up: method as in PMID 21114991; conditions: compared with curcumin; cited from earlier work
[2] = Pharmacokinetic study in rats after i.v. administration (HPLC-UV/VIS of plasma, non-compartmental analysis); assay type: in vivo, male Sprague Dawley rats; conditions: i.v. 10 mg/kg
Description: Samples were analyzed with a Flexar HPLC system that consisted of a UV/VIS detector, a quaternary pump and a solvent manager with built-in degasser (PerkinElmer, Waltham, MA, USA). The separation was achieved using a Waters Symmetry C18 column (150 × 4.6 mm I.D.; 5 µm; Waters, Milford, MA, USA) protected by a Waters Symmetry C18 Guard Column (20 × 3.9 mm I.D.; 5 µm; Waters, Milford, MA, USA) at ambient temperature. The system’s pump delivered a constant flow of 1 mL/min. The volume of injection was 50 µL. BHMC and IS were eluted with a gradient method that gave an initial flow of 100% water for 1 min, changing linearly to 100% methanol in 11 min. Pure methanol was pumped continuously for 9 min. After this, 100% water was regained to stabilize the chromatographic system for 6 min. BHMC and IS were detected at a visible range of 380 nm. The analyses were repeated according to the gradient elution at every analytical cycle. The chromatograms were analyzed with Chromera Manager 2.1 (PerkinElmer, Waltham, MA, USA).
Plasma samples (200 µL) were pipetted into 1.5 mL microcentrifuge tubes. To each tube, deionized water (80 µL) was added and the tubes vortexed at medium speed for 20 s. Next, IS (62.5 µg/mL, 40 µL) was added and the mixtures vortexed again at medium speed for 20 s. A volume of 500 µL extraction reagent (95% ethyl acetate, 5% methanol) was loaded into each tube followed by a 60 s sonication and high speed vortexing for 60 s. The tubes were allowed to settle for 5 min followed by centrifugation at 13,500 g for 5 min at a temperature of 15 °C. After centrifugation the upper organic layer was carefully removed into another clean microcentrifuge tube. The organic layer was dried under a stream of nitrogen gas with a low heat setting. The dried extracted product was resuspended in 200 µL of a solution consisting of 10% methanol and 90% deionized water, sonicated for 60 s then vortexed at medium speed for 30 s. The tubes were left at room temperature in the dark for at least 10 min, followed by a repeat vortex mixing. The content was then filtered with 0.45 µm PTFE syringe filters (Titan, West Springfield, MA, USA) into a clean HPLC injection sample vial for HPLC assay.
Experiments was conducted on male Sprague Dawley rats (8–10 weeks old, 180–200 g) supplied by the Faculty of Veterinary Medicine, Universiti Putra Malaysia. All rats were housed at 23 ± 2 °C with 12 h of light/dark cycle with access to food and water ad libitum. They were acclimatized and habituated to the laboratory condition for at least one week prior to experimentation and were used only once throughout the experiments. All experimental protocols involving animals were performed in accordance with the current guidelines for the care of laboratory animals and the ethical guidelines for animal experimentation Animal Care and Use Committee (ACUC) as approved by the Animal Experimentation Ethics Committee of Universiti Putra Malaysia. Six rats were used. BHMC, solubilized in 5% ethanol (Thermo Fisher Scientific, Waltham, MA, USA), 5% Tween-20 (Sigma-Aldrich, St. Louis, MO, USA) and 90% deionized water, was injected intravenously to each rat at a dose of 10 mg/kg body weight. Blood samples (0.5 mL) were obtained from the tail vein at 5, 15, 30, 60, 120, 240, 480 and 720 min following BHMC administration. In order to prevent coagulation and enable plasma collection 1 µg of heparin sodium was added to each blood sample. Each sample was immediately centrifuged at 3,000 g for 10 min and the plasma was processed as described under sample preparation section. Pharmacokinetic parameters were estimated using non-compartmental pharmacokinetic analysis.

[3] = tested on: cellular synthesis of nitric oxide and several proinflammatory cytokines; set-up: method as in PMID 19958764, PMID 21114991; conditions: through inhibition of signaling pathways incl. phosphorylation of p38 MAPK; cited from earlier work
[4] = tested on: mouse model of inflammatory pain; set-up: method as in PMID 12609665; conditions: cited from earlier work
[5] = set-up: method as in PMID 19110321, PMID 14997198, PMID 17400527, PMID 17999464; conditions: cited from earlier work
[6] = male, Sprague Dawley, rat, plasma, iv, n = 6, mean ± SD, non-compartmental analysis

SMILES: COc1cc(C=C2CCCC(=Cc3ccc(O)c(OC)c3)C2=O)ccc1O [BHMC, 2,6-bis-(4-hydroxy-3-methoxybenzylidene)-cyclohexanone]
- Reduction of mortality following severe sepsis [1]: superior to curcumin in reducing mortality
- Time post-treatment up to which quantifiable in plasma of all rats ([2]; LOQ 0.02 µg/mL): at least 8 h
- AUC(0-inf) [2, 6]: 989 ng·h/mL
- AUC(0-t) [2, 6]: 937 ng·h/mL
- clearance ([2]; male, Sprague Dawley, rat, plasma, iv, n = 6, mean ± SD, non-compartmental analysis, read-out: Cl (clearance)): 5.3 ± 0.7 mL/min
- Cmax ([2]; male, Sprague Dawley, rat, plasma, iv, n = 6, mean ± SD, non-compartmental analysis, read-out: Cmax (maximum plasma concentration)): 2910 ± 150 ng/mL
- half-life ([2]; male, Sprague Dawley, rat, plasma, iv, n = 6, mean ± SD, non-compartmental analysis, read-out: T1/2 (half-life)): 1.5 ± 0.124 h
- Vd ([2]; male, Sprague Dawley, rat, plasma, iv, n = 6, mean ± SD, non-compartmental analysis, read-out: Vd (volume of distribution)): 0.69 ± 0.038 L
- Effect on cellular synthesis of nitric oxide and several proinflammatory cytokines [3]: significant inhibitory effects
- Analgesic effect [4]: potential analgesic effect

SMILES: COc1cc(C=CC(=O)CC(=O)C=Cc2ccc(O)c(OC)c2)ccc1O [Curcumin, 1,7-bis(4-hydroxy-3-methoxyphenyl)-1,6-heptadiene-3,5-dione]
- Bioavailability via oral administration [5]: low bioavailability
